Data as given in patent US8753875B2, “Compositions and means for diagnosing microbial infections” (priority 2007, dated 2014).
Where two headings read alike, the source gives them in different places.

Columns and labels:
[1] = system: Pseud. Aeruginosa; set-up: key: Susceptible = S; Resistant = R; details: cited from earlier work
[2] = system: Klebsiella; set-up: key: Susceptible = S; Resistant = R; details: cited from earlier work
[3] = system: P. vulgaris; set-up: key: Susceptible = S; Resistant = R; details: cited from earlier work
[4] = system: Enterobacter; set-up: key: Susceptible = S; Resistant = R; details: cited from earlier work
[5] = system: E. coli; assay: Growth of E. coli in antibiotic compartments of the platform (FIG. 3); type: cell-based; details: illustrated E. coli of FIG. 3
Text: The photos show growth of E. coli at different quantities of bacteria/ml urine.

[6] = system: E. coli; set-up: key: Susceptible = S; Resistant = R; details: cited from earlier work
[7] = system: Morganella; set-up: key: Susceptible = S; Resistant = R; details: cited from earlier work
[8] = system: Candida sp.; set-up: key: Susceptible = S; Resistant = R; details: cited from earlier work
[9] = system: E. faecalis; set-up: key: Susceptible = S; Resistant = R; details: cited from earlier work
[10] = system: S. saprophyticus; set-up: key: Susceptible = S; Resistant = R; details: cited from earlier work
[11] = system: S. agalactiae; set-up: key: Susceptible = S; Resistant = R; details: cited from earlier work
[12] = system: E. coli; details: cited from earlier work
[13] = system: Proteus mirabilis; assay: Growth on Flexicult plate, susceptibility/resistance to the five antibiotics (FIG. 4, Table A); type: cell-based
Text: (§1) The kit was developed for urine culture in the primary health care setting. It is designed preferably as a nine cm Petri dish divided into six compartments: One larger compartment for quantitative analysis and five smaller compartments for susceptibility testing. The agar in each small compartment contains one of five antimicrobials (for Denmark and Scandinavia preferably: trimethoprim, sulfamethizole, ampicillin, nitrofurantoin and mecillinam (amdinocillin)) at a concentration adjusted to the breakpoint, such that growth in these compartments indicates resistance, and no growth indicates susceptibility. The Petri dish preferably has higher sides, approximately 2.48 cm, than the usual dish, i.e. ca. 1.48 cm. This allows a larger amount, maximum 100 ml, of urine to be poured onto the dish for inoculation.
(§2) Reading the susceptibility of the bacterial growth: Each bacterium (if more than one) is read individually: The growth in each of the antibiotic fields is compared with the growth on the control agar. […] If there is no growth (or substantially less than the control agar), then the bacterium is considered to be susceptible to the antibiotic. […] When nitrofurantoin and mecillinam are used as antibiotics, a few single colonies may be seen of the same type as the bacterium on the control agar: These are not considered to be resistant mutants but “persisters,” i.e. if retested they will appear susceptible. This is commonly seen also by disc diffusion especially for mecillinam.

[14] = system: E. coli; assay: as above; type: cell-based
Text: as §1, §2

[15] = system: P. aureginosa; assay: as above; type: cell-based
Text: as §1, §2

[16] = system: P. vulgaris; assay: as above; type: cell-based
Text: as §1, §2

[17] = system: Candida spp.; assay: as above; type: cell-based
Text: as §1, §2

[18] = system: E. faecium; assay: as above; type: cell-based
Text: as §1, §2

[19] = system: S. saprophyticus; assay: as above; type: cell-based
Text: as §1, §2

[20] = system: Enterobacter spp; assay: as above; type: cell-based
Text: as §1, §2

[21] = system: Citrobacter spp.; assay: as above; type: cell-based
Text: as §1, §2

[22] = system: E. faecalis; assay: as above; type: cell-based
Text: as §1, §2

[23] = system: Morganella spp.; assay: as above; type: cell-based
Text: as §1, §2

[24] = system: Klebsiella spp.; assay: as above; type: cell-based
Text: as §1, §2

[25] = Stability of the antimicrobial in the semi-solid media; type: physicochemical
Text: Stability of the antimicrobial in the semi-solid media may depend on the pH-value. The pH-value should preferably not exceed certain limits as this will influence the antimicrobial effect. The stability of Ampicillin and Mecillinam has been improved by adjusting the pH-value of the semi-solid media to 6.0.

[26] = system: Citrobacter; set-up: key: Susceptible = S; Resistant = R; details: cited from earlier work
[27] = system: P. mirabilis; set-up: key: Susceptible = S; Resistant = R; details: cited from earlier work
[28] = system: E. coli; details: 1142 E. coli outpatient urinary isolates, USA and Canada; cited from earlier work
[29] = system: E. faecium; set-up: key: Susceptible = S; Resistant = R; details: cited from earlier work

## CC1(C)SC2C(NC(=O)C(N)c3ccccc3)C(=O)N2C1C(=O)O (stereo not shown) [Ampicillin, 7-(2-amino-2-phenyl-acetyl)amino-3,3-dimethyl-6-oxo-2-thia-5-azabicyclo[3.2.0]heptane-4-carboxylic acid]
[1]
  Normal susceptibility/resistance: R
[2]
  Normal susceptibility/resistance: R
[3]
  Normal susceptibility/resistance: R
[4]
  Normal susceptibility/resistance: R
[5]
  resistant or susceptible (growth in antibiotic compartment): resistant
[6]
  Normal susceptibility/resistance: S
[7]
  Normal susceptibility/resistance: R
[8]
  Normal susceptibility/resistance: R
[9]
  Normal susceptibility/resistance: S
[10]
  Normal susceptibility/resistance: S
[11]
  Normal susceptibility/resistance: S
[12]; Austria, n 126
  Antimicrobial resistance of E. coli (resistance in percent): 17.5%
[12]; Belgium, n 137
  Antimicrobial resistance of E. coli (resistance in percent): 30.7%
[12]; Canada, n 166
  Antimicrobial resistance of E. coli (resistance in percent): 29.5%
[12]; Denmark, n 85
  Antimicrobial resistance of E. coli (resistance in percent): 22.4%
[12]; Finland, n 182
  Antimicrobial resistance of E. coli (resistance in percent): 19.8%
[12]; France, n 199
  Antimicrobial resistance of E. coli (resistance in percent): 27.6%
[12]; Germany, n 138
  Antimicrobial resistance of E. coli (resistance in percent): 29.0%
[12]; Greece, n 132
  Antimicrobial resistance of E. coli (resistance in percent): 22.0%
[12]; Ireland, n 154
  Antimicrobial resistance of E. coli (resistance in percent): 44.8%
[12]; Luxembourg, n 24
  Antimicrobial resistance of E. coli (resistance in percent): 41.7%
[12]; Norway, n 168
  Antimicrobial resistance of E. coli (resistance in percent): 23.8%
[12]; Portugal, n 86
  Antimicrobial resistance of E. coli (resistance in percent): 45.3%
[12]; Spain, n 191
  Antimicrobial resistance of E. coli (resistance in percent): 53.9%
[12]; Sweden, n 193
  Antimicrobial resistance of E. coli (resistance in percent): 15.5%
[12]; Switzerland, n 122
  Antimicrobial resistance of E. coli (resistance in percent): 27.0%
[12]; The Netherlands, n 195
  Antimicrobial resistance of E. coli (resistance in percent): 28.7%
[12]; Total, n 2478
  Antimicrobial resistance of E. coli (resistance in percent): 29.8%
[12]; United Kingdom, n 180
  Antimicrobial resistance of E. coli (resistance in percent): 37.2%
[13]
  Susceptibility = S or Resistance = R: S
[14]
  Susceptibility = S or Resistance = R: R
[15]
  Susceptibility = S or Resistance = R: R
[16]
  Susceptibility = S or Resistance = R: R/S
[17]
  Susceptibility = S or Resistance = R: R
[18]
  Susceptibility = S or Resistance = R: S
[19]
  Susceptibility = S or Resistance = R: S
[20]
  Susceptibility = S or Resistance = R: R
[21]
  Susceptibility = S or Resistance = R: R
[22]
  Susceptibility = S or Resistance = R: S
[23]
  Susceptibility = S or Resistance = R: R
[24]
  Susceptibility = S or Resistance = R: R
[25]
  stability in the semi-solid media: improved
[26]
  Normal susceptibility/resistance: R
[27]
  Normal susceptibility/resistance: S
[28]
  Overall resistance in E. coli: 37.7%
[29]
  Normal susceptibility/resistance: S

## CC1(C)S[C@@H]2[C@H](/N=C/N3CCCCCC3)C(=O)N2[C@H]1C(=O)O [Mecillinam, 6-Amidinopenicillanic acid derivatives; amdinocillin: 46-[[(hexahydro-1H-azepin-1-yl)methylene]amino]-3,3-dimethyl-7-oxo-, (2S,5R,6R)--Thia-1-azabicyclo[3.2.0]heptane-2-carboxylic acid]
[1]
  Normal susceptibility/resistance: R
[2]
  Normal susceptibility/resistance: S
[3]
  Normal susceptibility/resistance: R
[4]
  Normal susceptibility/resistance: S
[5]
  resistant or susceptible (growth in antibiotic compartment): susceptible
[6]
  Normal susceptibility/resistance: S
[7]
  Normal susceptibility/resistance: R
[8]
  Normal susceptibility/resistance: R
[9]
  Normal susceptibility/resistance: R
[10]
  Normal susceptibility/resistance: S/R
[11]
  Normal susceptibility/resistance: R
[12]; Austria, n 126
  Antimicrobial resistance of E. coli (resistance in percent): 1.6%
[12]; Belgium, n 137
  Antimicrobial resistance of E. coli (resistance in percent): 1.5%
[12]; Canada, n 166
  Antimicrobial resistance of E. coli (resistance in percent): 1.2%
[12]; Denmark, n 85
  Antimicrobial resistance of E. coli (resistance in percent): 1.2%
[12]; Finland, n 182
  Antimicrobial resistance of E. coli (resistance in percent): 0.5%
[12]; France, n 199
  Antimicrobial resistance of E. coli (resistance in percent): 1.5%
[12]; Germany, n 138
  Antimicrobial resistance of E. coli (resistance in percent): 2.2%
[12]; Greece, n 132
  Antimicrobial resistance of E. coli (resistance in percent): 0.8%
[12]; Ireland, n 154
  Antimicrobial resistance of E. coli (resistance in percent): 0.6%
[12]; Luxembourg, n 24
  Antimicrobial resistance of E. coli (resistance in percent): 0%
[12]; Norway, n 168
  Antimicrobial resistance of E. coli (resistance in percent): 0%
[12]; Portugal, n 86
  Antimicrobial resistance of E. coli (resistance in percent): 2.3%
[12]; Spain, n 191
  Antimicrobial resistance of E. coli (resistance in percent): 1.0%
[12]; Sweden, n 193
  Antimicrobial resistance of E. coli (resistance in percent): 1.6%
[12]; Switzerland, n 122
  Antimicrobial resistance of E. coli (resistance in percent): 0%
[12]; The Netherlands, n 195
  Antimicrobial resistance of E. coli (resistance in percent): 1.5%
[12]; Total, n 2478
  Antimicrobial resistance of E. coli (resistance in percent): 1.2%
[12]; United Kingdom, n 180
  Antimicrobial resistance of E. coli (resistance in percent): 1.7%
[13]
  Susceptibility = S or Resistance = R: R
[14]
  Susceptibility = S or Resistance = R: S
[15]
  Susceptibility = S or Resistance = R: R
[16]
  Susceptibility = S or Resistance = R: R
[17]
  Susceptibility = S or Resistance = R: R
[18]
  Susceptibility = S or Resistance = R: S
[19]
  Susceptibility = S or Resistance = R: S
[20]
  Susceptibility = S or Resistance = R: R
[21]
  Susceptibility = S or Resistance = R: S
[22]
  Susceptibility = S or Resistance = R: S
[23]
  Susceptibility = S or Resistance = R: R
[24]
  Susceptibility = S or Resistance = R: S
[25]; pH-value of the semi-solid media adjusted to 6.0
  stability in the semi-solid media: improved
[26]
  Normal susceptibility/resistance: S
[27]
  Normal susceptibility/resistance: S/R
[29]
  Normal susceptibility/resistance: R
